Results published in US8168212B2, “Topical compositions comprising non-proteogenic amino acids and methods of treating skin” (Avon Products, Inc, priority 2007, dated 2012).

Legend:
[1] = system: LOXL1 regulatory elements (promoter region of the LOXL1 gene); test: LOXL1 promoter luciferase-reporter assay in transfected fibrosarcoma cells; format: cell-based, human; conditions: 1 μg/ml, 24 h, HTI080 cells, triplicate tests, p<0.05
Excerpt: Vector construction, transfection and expression: The promoter region of the LOXL1 gene was isolated and cloned into the pGL3 Luciferase reporter plasmid (Promega) by standard methods known in the art and according to manufacturer's instructions. The LOXL1/pGL3 vector and the control vector pRL-NULL (Promega), containing no regulatory elements, were contransfected into the human fibrosarcoma line HTI080 using LipofectAMINE™ LTX Reagent (Invitrogen) according to manufacturer's directions.
Transfected cells were allowed to recover for 24 h. The culture medium was then replaced with fresh medium containing various concentrations of L-4 Thiazolylalanine, and the transfected cells cultured for an additional 24 h.
The cultures were subsequently washed with PBS and exposed to 100 μl cell lysis buffer/25 cm^2 culture area and gently shaken at room temperature for 30 min. The culture flasks containing the cell lysate were then immediately placed at −80° C.
The activity of the reporter gene, firefly luciferase, was determined according to the manufacturer's instructions (Dual-Luciferase® Reporter Assay System, Promega). Briefly, the activity of the reporter gene is determined relative to that of a control vector encoding a second luciferase gene, that from Renilla reniformis. […]

CGRP = CGRP enzyme immunoassay of conditioned medium of PC-12 cells; format: cell-based, rat; conditions: 0.01%, 24 h, p<0.05
Procedure: Cell culture: PC-12 cells were cultured in FK12 medium supplemented with nerve growth factor according to routine methods known in the art. PC12 cells are derived from a rat pheochromocytoma and terminally differentiate on exposure to nerve growth factor. Once the cells begin to differentiate, they express CGRP. Cultures were incubated in medium containing L-4 Thiazolylalanine for another 24 h. after which conditioned medium was collected and assayed for the presence of CGRP.
CGRP Immunoassay: The presence of CGRP in the test samples was assayed by a sandwich ELISA immunoassay kit. Briefly, test and control samples of conditioned media are mixed with an anti-CGRP antibody conjugated to acetylcholinesterase (the “tracer antibody”), and the mixtures added to plates pre-coated with a monoclonal anti-CGRP antibody (binding to a different epitope of CGRP than the tracer antibody) that had been blocked for non-specific binding. The samples were incubated in the plates and the plates washed and the bound acetylcholinesterase activity determined using Ellman's reagent according to routine methods known in the art. The absorbance of the reagent is directly proportional to the concentration of CGRP in the sample.
The percent change in CGRP expression due to L-4 Thiazolylalanine treatment was calculated according to the formula: […]

β1 integrin = test: Whole cell ELISA of β1 integrin expression in human dermal fibroblasts; format: cell-based; conditions: 0.01% (w/v), 24 hours
Procedure: Cell culture: Human dermal fibroblasts (Cascade Biologics) were cultured in growth medium (DMEM, 5% FBS, 1% L-Glut, and 1% antibiotics) overnight in 60 mm dishes at 3.5×10^5 cells/ml. Cells were treated with test active or vehicle control diluted in growth medium and incubated for 24 hours at 37° C.
Whole cell ELISA: A B1 integrin kit from Chemicon International was used to assay the expression of B1 integrin on the cell surface following treatment with L-4 thiazolylalanine Medium was aspirated and plates were incubated at 37° C. with Cell Dissociation Buffer (provided with the kit) for 20-25 minutes, cells were centrifuged and resuspended in DMEM without supplements. 100 μl of the cell suspension was added to microtiter plates precoated with a murine anti-human β1 antibody (Chemicon International) that had been blocked for non-specific binding, and the plates incubated at 37° C. for 2 h. Adherent cells were quantitated by a cell staining kit (Chemicon International) according to manufacturer's instructions. Briefly, plates were washed in PBS and adherent cells stained by incubation for 5 min. at room temperature in the kit staining solution. […] Extraction buffer was then added to each well and the plate read at 570 nm on a spectrophotometer.
The percent change in β1 integrin expression was calculated according to the formula: […]

fibronectin = test: Competitive inhibition ELISA of fibronectin in conditioned media of human dermal fibroblasts; format: cell-based; conditions: 72 hours, P < 0.05
Procedure: Cell culture: Human dermal fibroblasts (Cascade Biologics) were cultured in 12-well tissue culture plates in growth medium (DMEM, 5% FBS, 1% L-Glut, and 1% antibiotics) and incubated for 24 hours at 37° C. Cells treated with test active diluted in growth medium and incubated for 72 hours at 37° C., after which conditioned media was collected and assayed for the presence of fibronectin. […].
Competitive inhibition ELISA: The presence of fibronectin in the test samples was assayed by a competitive ELISA kit (Chemicon International). Briefly, test and control samples of conditioned media were incubated with a HRP-conjugated, rabbit polyclonal anti-human fibronectin antibody at room temperature for about 10 minutes. The sample/antibody mixture was then transferred to a microtiter plate precoated with a standard amount of human fibronectin that had been blocked for non-specific binding. The plate was incubated for one hour at room temperature, followed by a PBS wash and detection of bound antibody (i.e., detection of bound HRP) by routine methods known in the art. The amount of bound antibody is inversely proportional to the amount of fibronectin in the sample.
The percent change in fibronectin expression due to L-4 Thiazolylalanine treatment was calculated according to the formula: […]

calcineurin = test: Ex-vivo DiFMUP phosphatase assay of calcineurin activity; format: biochemical
Procedure: Ex-vivo phosphatase assay: The modulation of calcineurin activity was monitored using a DiFMUP (6,8-difluoro-7-hydroxy-4-methylcoumarin phosphate) phosphatase assay well characterized in the art (see, e.g., Wegner et al., 2007, Methods Mol. Biol. 365:61-69, hereby incorporated by reference in its entirety). Dephosphorylation of DiFMUP leads to the formation of a highly fluorescent and stable product: […].
Varying concentrations of L-4 Thiazolylalanine were added to a reaction buffer consisting of 50 mM Tris-HCL, pH 7.4, 0.0125% BSA, 0.1 mM CaCl, 400 U/ml calmodulin and 1 mM NiCl. The L-4 Thiazolylalanine/reaction buffer mixture was incubated at 37° C. for 30 min. DiFMU substrate was then added to a concentration of 10 μM, and the mixture returned to 37° C. incubation for a further 15 min. Fluorescence intensity was determined on a Spectrofluorometer.

human skin = test: Human clinical patch study, histology of skin samples (Trichrome collagen and Alcian blue GAG staining); format: in vivo; conditions: 0.01% solution, topical semi-occlusive patch on outer forearm, 15 applications
Procedure: In order to ascertain the effect of L-4 thiazolylalanine on collagen levels in human skin in vivo, a test was conducted on about 25 women aged 35-65 years. This human clinical study was approved by an Institutional Review Board and informed consent from the subjects was obtained prior to commencement of the study. The study was conducted in accordance with Title 21 of the Code of Federal Regulations, parts 50 and 56.
A solution of 0.01% L-4 Thiazolylalanine was made up in a vehicle of Propylene glycol:Ethanol:Water at a ratio of 70:20:10. The experimental design of the test was as follows: Thiazolylalanine solution or the vehicle solution without thiazolylalanine was applied to the outer forearm on a 2×2 area of skin (@2 mg/cm2) under a semi-occlusive patch for 24 hours, after which the patch was removed and a fresh patch was applied. This was repeated for 5 days (Monday-Friday), then subjects were rested for the weekend. Patch application was continued in the same manner for the next two weeks, for a total of 15 applications. […] The intensity of the collagen and GAG staining was assessed visually under the microscope. […]

In the case of `N[C@@H](Cc1cscn1)C(=O)O` [L-4 Thiazolylalanine, L-4-thiazolylalanine], the “increase in expression of the reporter gene” value [1] is reported as 57%, the “increase in expression of CGRP” value (CGRP) is reported as 69.93% and the “increase in the expression of B1 integrin” value (β1 integrin) is reported as 225%. For the same molecule, the “Percent Change in fibronectin expression” value (fibronectin; Concentration 0.00001%) was 54.34% (P < 0.05), the “Percent Change in fibronectin expression” value (fibronectin; Concentration 0.0001%) was 31.03% (P < 0.05) and the “Percent Change in fibronectin expression” value (fibronectin; Concentration 0.001%) was 36.11% (P < 0.05). The “increase of calcineurin activity” value (calcineurin; 0.0001% weight/volume (lowest concentration tested)) was 6%, the “decrease of calcineurin activity” value (calcineurin; 0.001% concentration) was 11% and the “decrease of calcineurin activity” value (calcineurin; 0.01% concentration) was 63%. For the same molecule, the “IC-50 (calcineurin activity), estimated” value (calcineurin; estimated) was about 0.064%, the “subjects with an increase in GAG staining relative to skin treated with the vehicle” value (human skin; 13/21 subjects) was 62% and the “subjects with increased collagen staining in treated sites versus vehicle treated site” value (human skin; 18/21 subjects) was 86%.
